# Measurements reported in patent US7625948B2, “Ester compound and medicinal use thereof” (Japan Tobacco Inc., priority 2002, dated 2009).
# Where two headings read alike, the source gives them in different places.
# Assays:
# [1] = molecular target: T1, Microsomal triglyceride transfer protein (MTP) from bovine liver (Bos taurus, UniProt P55156); assay: Test Example 1: inhibition of interliposomal triglyceride (TG) transfer activity by MTP (also used for metabolites in Test Example 8); type: biochemical
# T1 construct: from tissue; host or cells: bovine liver
# T1 sequence (P55156 12-887): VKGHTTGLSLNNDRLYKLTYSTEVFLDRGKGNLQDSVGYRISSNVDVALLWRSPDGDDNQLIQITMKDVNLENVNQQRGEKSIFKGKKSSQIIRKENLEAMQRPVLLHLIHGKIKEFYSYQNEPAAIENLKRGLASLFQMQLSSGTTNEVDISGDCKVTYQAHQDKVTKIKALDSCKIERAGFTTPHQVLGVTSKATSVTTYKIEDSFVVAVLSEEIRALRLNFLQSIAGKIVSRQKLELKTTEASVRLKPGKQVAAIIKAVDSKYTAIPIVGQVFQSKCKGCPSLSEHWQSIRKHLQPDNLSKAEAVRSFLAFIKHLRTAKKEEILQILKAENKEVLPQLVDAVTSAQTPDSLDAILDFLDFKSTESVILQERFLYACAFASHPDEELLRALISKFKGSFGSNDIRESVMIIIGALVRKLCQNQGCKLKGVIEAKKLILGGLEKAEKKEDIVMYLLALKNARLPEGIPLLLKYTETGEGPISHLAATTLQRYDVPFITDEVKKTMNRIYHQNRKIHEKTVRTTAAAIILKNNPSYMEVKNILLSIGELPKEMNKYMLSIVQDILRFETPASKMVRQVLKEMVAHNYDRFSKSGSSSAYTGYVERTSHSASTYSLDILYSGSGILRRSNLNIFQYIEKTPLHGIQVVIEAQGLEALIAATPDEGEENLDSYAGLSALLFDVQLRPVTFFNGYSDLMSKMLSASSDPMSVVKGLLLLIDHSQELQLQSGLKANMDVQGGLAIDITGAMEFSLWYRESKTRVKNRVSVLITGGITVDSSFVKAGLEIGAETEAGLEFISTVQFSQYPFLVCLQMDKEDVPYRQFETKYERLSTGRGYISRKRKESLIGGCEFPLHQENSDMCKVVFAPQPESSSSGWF
# T1 sequence (P05307 21-510 partner): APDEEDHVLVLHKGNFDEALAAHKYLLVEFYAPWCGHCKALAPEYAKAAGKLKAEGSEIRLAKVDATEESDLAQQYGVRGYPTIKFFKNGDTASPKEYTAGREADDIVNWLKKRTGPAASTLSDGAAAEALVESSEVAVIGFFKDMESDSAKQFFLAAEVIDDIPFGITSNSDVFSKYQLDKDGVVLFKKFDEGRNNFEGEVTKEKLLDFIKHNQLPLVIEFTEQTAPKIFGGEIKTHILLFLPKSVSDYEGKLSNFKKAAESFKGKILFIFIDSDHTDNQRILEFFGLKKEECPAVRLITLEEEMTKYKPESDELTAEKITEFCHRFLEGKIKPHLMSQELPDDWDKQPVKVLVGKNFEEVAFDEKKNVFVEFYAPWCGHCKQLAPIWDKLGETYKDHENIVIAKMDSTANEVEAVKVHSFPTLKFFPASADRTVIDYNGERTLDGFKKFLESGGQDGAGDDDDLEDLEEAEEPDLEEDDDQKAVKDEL
# Description: Inhibition of Interliposomal Triglyceride (TG) Transfer Activity by MTP
# Microsomal triglyceride transfer protein (MTP) from bovine liver was partially purified in such a way described below. A buffer (50 mM Tris, 250 mM sucrose, 1 mM EDTA, 0.02% NaN3 (pH 7.4)) for making a homogenate preparation was added to bovine liver, and the mixture was homogenated under ice-cooling, then centrifuged at 10,000×g (4° C., 30 minutes). The supernatant was adjusted to pH 5.1 with hydrochloric acid, and stirred for 30 minutes. The solution was further centrifuged at 10,000×g (4° C., 30 minutes), and 1 mM Tris buffer was added to the precipitated residue, and the mixture was adjusted to pH 8.6 with sodium hydroxide. After addition of 2.7M ammonium sulfate solution, the mixture was stirred for 30 minutes, then centrifuged at 10,000×g (4° C., 40 minutes). The resulting supernatant was served as a crude extraction fraction of MTP and stored at −80° C. under freezing. In its practical use, the crude extraction fraction of MTP was purified by column chromatography on diethylaminoethyl (DEAE) Sepharose using FPLC (Fast Performance Liquid Chromatography) system, and the purified MTP was used for the test.
# Small unilamellar-vesicle (SUV) liposome (donor, 0.25 mol % triolein, 5 mol % cardiolipin) labeled with ^14C-triolein and non-labeled SUV liposome (acceptor, 0.25 mol % triolein) were prepared. A fixed amount of donor and acceptor, and MTP were mixed with a sample dissolved in DMSO or with DMSO. The mixture was incubated in a 15 mM Tris hydrochloride buffer (pH 7.4) containing 40 mM sodium chloride, 1 mM EDTA (ethylenediaminetetraacetic acid), 0.02% NaN3 and 0.5% bovine serum albumin at 37° C. for one hour. After completion of the incubation, a suspension of DEAE cellulose (50% v/v) in 15 mM Tris hydrochloride buffer (pH 7.4) was added to the above solution, and the mixture was centrifuged to separate the donor and the acceptor. The radioactivity in the acceptor was measured by liquid scintillation counter. The value obtained by subtracting the radioactivity in the blank from the amount of radioactivity in the acceptor of a DMSO group was determined as MTP-mediated TG transfer activity, and it was compared with the value obtained by subtracting the radioactivity in the blank from the radioactivity in a sample group. The blank was prepared by adding 15 mM Tris-HCl buffer (pH 7.4) in place of MTP. Inhibition rate (%) was calculated from the values obtained according to the following equation.
# Inhibition rate (%)=100×(1 minus ((radioactivity of sample group minus radioactivity of blank group)/(radioactivity of DMSO group minus radioactivity of blank group))).
# 50% Inhibition rate (IC50) was determined on the basis of the above equation.
# Inhibitory Activity on MTP and apo B Secretion Inhibition by Metabolites
# In a similar manner to Test Examples 1 and 2, the activity of metabolites was assayed.
# HepG2 cells = assay: Test Example 2: inhibition of apolipoprotein B secretion from HepG2 cells, ELISA (also used for metabolites in Test Example 8); type: cell-based; settings: Homo sapiens
# Outline: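 HepG2 cells cultured 24 h, then exposed 24 h to compounds or metabolites in medium with 0.5% DMSO. Secreted apo B in supernatant quantified by sandwich ELISA (HRP, ABTS, 405 nm) against purified human apo B standard; % inhibition vs DMSO group, IC50 derived.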
# [2] = main metabolites of the compounds (Test Example 8), read-out: MTP inhibition IC50
# [3] = main metabolites of the compounds (Test Example 8), read-out: Inhibition of apo B secretion IC50
# [4] = MTP-mediated 14C-triolein transfer between liposomes, 37° C., one hour, read-out: Test Example 1 MTP inhibition IC50
# [5] = 24 hours, apo B in supernatant by ELISA, read-out: Test Example 2 Inhibition of apo B secretion IC50
SMILES,"IC50 [1, 2]",IC50 (HepG2 cells; [3]),"IC50 [1, 4]",IC50 (HepG2 cells; [5])
CCNC(=O)C(CO)(C(=O)NCC)c1ccccc1,> 1000 nM,> 10000 nM,,
O=C(O)Cc1ccc(NC(=O)c2ccccc2-c2ccc(C(F)(F)F)cc2)cc1,> 1000 nM,> 10000 nM,,
CCCNC(=O)C(CO)(C(=O)NCCC)c1ccccc1,> 1000 nM,> 10000 nM,,
CN(C)C(=O)c1cc(CC(=O)O)ccc1NC(=O)c1ccccc1-c1ccc(C(F)(F)F)cc1,> 10000 nM,> 10000 nM,,
CCOC(=O)C(CO)(C(=O)OCC)c1ccccc1,> 1000 nM,> 10000 nM,,
COc1cc(CC(=O)O)ccc1NC(=O)c1ccccc1-c1ccc(C(F)(F)F)cc1,> 1000 nM,> 10000 nM,,
"CCOC(=O)C(COC(=O)Cc1ccc(N(C)C(=O)c2ccccc2-c2ccc(C(F)(F)F)cc2)cc1)(C(=O)OCC)c1ccccc1 [Example 1-4, 2-(2-{4-[Methyl-(4′-trifluoromethylbiphenyl-2-carbonyl)amino]phenyl}acetoxymethyl)-2-phenylmalonic acid diethyl ester]",,,3.4 nM,190 nM
CC(C(=O)OCC1(C(=O)NCC(F)(F)F)c2ccccc2-c2ccccc21)c1ccc(NC(=O)c2ccccc2-c2ccc(C(F)(F)F)cc2)cc1 (centres unmarked) [Example 1-7],,,7.55 nM,330 nM
O=C(Cc1ccc(NC(=O)c2ccccc2-c2ccc(C(F)(F)F)cc2)cc1)OCC(C(=O)NCC(F)(F)F)c1ccccc1 (centres unmarked) [Example 1-8],,,37.5 nM,720 nM
CCOC(=O)C(COC(=O)Cc1ccc(NC(=O)c2ccccc2-c2ccc(C(F)(F)F)cc2)cc1)(C(=O)OCC)c1ccccc1 [Example 1-9],,,5.95 nM,3.2 nM
CC(C)OC(=O)C(COC(=O)Cc1ccc(NC(=O)c2ccccc2-c2ccc(C(F)(F)F)cc2)cc1)(C(=O)OC(C)C)c1ccccc1 [Example 1-11],,,32 nM,22 nM
CCOC(=O)C(COC(=O)Cc1ccc(NC(=O)c2ccccc2-c2ccc(C(F)(F)F)cc2)cc1)(C(=O)OCC)C1CCCC1 [Example 1-14],,,82 nM,55 nM
O=C(Cc1ccc(NC(=O)c2ccccc2-c2ccc(C(F)(F)F)cc2)cc1)OCC(C(=O)OC1CCCCC1)(C(=O)OC1CCCCC1)c1ccccc1 [Example 1-22],,,66.5 nM,180 nM
O=C(Cc1ccc(NC(=O)c2ccccc2-c2ccc(C(F)(F)F)cc2)cc1)OCC(C(=O)NC1CCCCC1)(C(=O)NC1CCCCC1)c1ccccc1 [Example 1-23],,,54 nM,63 nM
CC(C)NC(=O)C(COC(=O)Cc1ccc(NC(=O)c2ccccc2-c2ccc(C(F)(F)F)cc2)cc1)(C(=O)NC(C)C)c1ccccc1 [Example 1-25],,,5 nM,8.4 nM
CCOC(=O)C(COC(=O)Cc1ccc(NC(=O)c2ccccc2-c2ccc(C(F)(F)F)cc2)cc1)(Cc1ccccc1)C(=O)OCC [Example 1-26],,,630 nM,620 nM

SMILES,"IC50 [1, 2]",IC50 (HepG2 cells; [3]),"IC50 [1, 4]",IC50 (HepG2 cells; [5])
CCOC(=O)C(COC(=O)Cc1ccc(NC(=O)c2ccccc2-c2ccc(C(F)(F)F)cc2)cc1C)(C(=O)OCC)c1ccccc1 [Example 1-27],,,7 nM,26 nM
O=C(Cc1ccc(OC(=O)c2ccccc2-c2ccc(C(F)(F)F)cc2)cc1)OCC(C(=O)NCC(F)(F)F)(C(=O)NCC(F)(F)F)c1ccccc1 [Example 1-28],,,35 nM,640 nM
CCOC(=O)C(COC(=O)Cc1ccc(NC(=O)c2ccccc2-c2ccc(C(F)(F)F)cc2)cc1)(C(=O)OCC)C1CCCCC1 [Example 1-31],,,84.5 nM,61 nM
O=C(Cc1ccc(NC(=O)c2ccccc2-c2ccccc2)cc1)OCC(C(=O)NCC(F)(F)F)(C(=O)NCC(F)(F)F)c1ccccc1 [Example 1-32],,,8.6 nM,720 nM
CCOC(=O)C(COC(=O)Cc1ccc(NC(=O)c2ccccc2-c2ccc(C(F)(F)F)cc2)cc1C(F)(F)F)(C(=O)OCC)c1ccccc1 [Example 1-34],,,23 nM,100 nM
CNC(=O)C(COC(=O)Cc1ccc(NC(=O)c2ccccc2-c2ccc(C(F)(F)F)cc2)cc1)(C(=O)NC)c1ccccc1 [Example 1-36],,,2 nM,150 nM
CCOC(=O)C(COC(=O)Cc1ccc(NC(=O)c2ccccc2-c2ccc(C(F)(F)F)cc2)cc1)(C(=O)OCC)c1ccccn1 [Example 1-37],,,3.5 nM,47 nM
CCOC(=O)C(COC(=O)Cc1ccc(NC(=O)c2ccccc2-c2ccc(C(F)(F)F)cc2)cc1)(C(=O)OCC)c1cccnc1 [Example 1-38],,,6 nM,320 nM
CCNC(=O)C(COC(=O)Cc1ccc(OC(=O)c2ccccc2-c2ccc(C(F)(F)F)cc2)cc1)(C(=O)NCC)c1ccccc1 [Example 1-39],,,0.66 nM,160 nM
CCOC(=O)C(COC(=O)Cc1ccc(NC(=O)c2ccccc2-c2ccc(C(F)(F)F)cc2)c(C(F)(F)F)c1)(C(=O)OCC)c1ccccc1 [Example 1-40],,,6.9 nM,2.1 nM
CCCCNC(=O)C(COC(=O)Cc1ccc(NC(=O)c2ccccc2-c2ccc(C(F)(F)F)cc2)cc1)(C(=O)NCCCC)c1ccccc1 [Example 1-42],,,4.4 nM,35 nM
CCOC(=O)C(COC(=O)Cc1ccc(NC(=O)c2ccccc2-c2ccc(OC)cc2)cc1)(C(=O)OCC)c1ccccc1 [Example 1-47],,,4.5 nM,750 nM
CCNC(=O)C(CCOC(=O)Cc1ccc(NC(=O)c2ccccc2-c2ccc(C(F)(F)F)cc2)cc1)(C(=O)NCC)c1ccccc1 [Example 1-48],,,3.2 nM,9.7 nM
CCCNC(=O)C(CCOC(=O)Cc1ccc(NC(=O)c2ccccc2-c2ccc(C(F)(F)F)cc2)cc1)(C(=O)NCCC)c1ccccc1 [Example 1-49],,,20 nM,5.3 nM
CCNC(=O)C(COC(=O)Cc1ccc(NC(=O)c2ccccc2Oc2ccccc2)cc1)(C(=O)NCC)c1ccccc1 [Example 1-51],,,0.96 nM,530 nM
